From patent US20230365582A1, “NOVEL COMPOUNDS HAVING INHIBITORY ACTIVITY ON PROSTAGLANDIN E2 RECEPTOR AND USES THEREOF” (KANAPH THERAPEUTICS INC., priority 2020, published 2023)

How the values were obtained:
hEP2 = target: T1, hEP2 (Homo sapiens, UniProt P43116); assay: hEP2 cAMP assay; format: cell-based; conditions: HEK293 cells overexpressing hEP2; PGE2 agonist 400 pM; graded per Table 21; read-out: IC50 (nM) EP2 cAMP
T1 construct: expressed in transfected cells; host or cells: HEK293
Protocol: (§1) HEK293 cells overexpressing hEP2 were cultured in growth medium (GM: MEM (Gibco™, 11095080)/10% HI FBS (Gibco™, 10082147)/1% penicillin/streptomycin). Before the experiment, the growth medium was removed, and starvation medium (HBSS (Gibco™, 14025076)/10% GM) was added. Thereafter, the cells were incubated for 4 hours. The HEK293 cells harboring hEP2 were detached from the culture dish with a non-enzymatic cell dissociation buffer (Gibco™, 15040066). The cells were resuspended in assay buffer (AB: HBSS, 0.1% BSA stabilizer, 0.5 mM IBMX, 5 mM HEPES).
(§2) 1,000 cells in 5 μL of AB were seeded per well in a 384 well plate (Corning™, 3570), and stock solutions of test compounds were prepared at a concentration of 1 mM in DMSO and serially diluted in DMSO to the concentration required for the inhibition dose response curve (test concentration range of 10 μM-0.001 nM). PGE2 (Sigma, P0409, stock solution: 1 μM) was used as an agonist at a final concentration of 400 pM corresponding to EC50-80. 2.5 μL of the diluted compound and 2.5 μL of PGE2 (400 pM final concentration) were transferred to the assay plate, and then the plate was incubated at room temperature for 12 minutes.
(§3) 5 μL of each donor (Eu-cAMP tracer) and acceptor (ULight-anti-cAMP) was added, and the plate was incubated in the dark for 1 hour at room temperature, and then a Varioskan LUX multimode microplate reader was used to obtain the results (excitation: 334 nm, emission: 615 and 665 nm). The resulting FRET fluorescence value (665 nm/615 nm*10000) was converted and then calculated as a percentage of cAMP relative to the DMSO control value. IC50 values and curves were generated with GraphPad Prism software using log (inhibitor) versus response-variable slopes (4 parameters), and the median of multiple experiments was taken as the experiment result.

hEP4 = target: T2, hEP4 (Homo sapiens, UniProt P35408); assay: hEP4 cAMP assay; format: cell-based; conditions: HEK293 cells overexpressing hEP4; PGE2 agonist 20 nM; graded per Table 21; read-out: IC50 (nM) EP4 cAMP
T2 construct: expressed in transfected cells; host or cells: HEK293
T2 sequence (P35408 whole entry): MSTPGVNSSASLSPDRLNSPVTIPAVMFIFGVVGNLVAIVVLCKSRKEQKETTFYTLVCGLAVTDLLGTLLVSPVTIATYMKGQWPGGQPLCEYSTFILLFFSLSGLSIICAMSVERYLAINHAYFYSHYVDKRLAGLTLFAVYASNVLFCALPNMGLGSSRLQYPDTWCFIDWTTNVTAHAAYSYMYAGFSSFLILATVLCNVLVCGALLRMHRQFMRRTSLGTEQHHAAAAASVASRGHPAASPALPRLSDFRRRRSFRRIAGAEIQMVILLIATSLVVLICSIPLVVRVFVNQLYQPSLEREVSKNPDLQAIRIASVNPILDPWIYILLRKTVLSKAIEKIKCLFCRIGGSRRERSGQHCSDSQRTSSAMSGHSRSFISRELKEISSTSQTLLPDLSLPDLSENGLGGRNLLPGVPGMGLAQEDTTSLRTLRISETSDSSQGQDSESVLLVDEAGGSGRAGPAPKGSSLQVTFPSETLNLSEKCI
Protocol: as §1, with “overexpressing hEP4” for “overexpressing hEP2”, “(HBSS (Gibco™” for “(HBSS (Gibco™,”, “hours.” for “hours. The”, “harboring hEP4” for “harboring hEP2”
as §2, with “plate (Corning®,” for “plate (Corning™,”, “solution: 100” for “solution: 1”, “of 20 nM” for “of 400 pM”, “PGE2 (20 nM” for “PGE2 (400 pM”, “for 18.5” for “for 12”
as §3, with “compared” for “relative”, “slope” for “slopes”

T1 sequence (P43116 whole entry): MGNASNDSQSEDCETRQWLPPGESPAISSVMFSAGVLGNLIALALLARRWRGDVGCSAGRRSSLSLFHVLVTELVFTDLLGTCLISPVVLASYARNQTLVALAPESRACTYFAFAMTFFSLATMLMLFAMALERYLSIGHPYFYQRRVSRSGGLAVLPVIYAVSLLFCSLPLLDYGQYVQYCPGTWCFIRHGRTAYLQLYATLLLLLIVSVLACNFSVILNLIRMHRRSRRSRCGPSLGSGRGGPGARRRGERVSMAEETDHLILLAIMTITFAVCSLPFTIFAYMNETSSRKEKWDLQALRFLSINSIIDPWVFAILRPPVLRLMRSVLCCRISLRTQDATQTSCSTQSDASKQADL

Row | IC50 (hEP2) [nM] | IC50 (hEP4) [nM] | Structure (SMILES)
1 | 500 to 5000 | < 500 | COc1cc(C#N)cc(-c2ccc(Cc3c(C)sc(C)c3C(=O)NC3CC4(C3)CC(C(=O)O)C4)cc2)c1 (stereo not shown) [Example 41, 6-(4-((3′-cyano-5′-methoxy-[1,1′-biphenyl]-4-yl)methyl)-2,5-dimethylthiophene-3-carboxamido)spiro[3.3]heptane-2-carboxylic acid]
2 | 500 to 5000 | < 500 | Cc1sc2ccn(Cc3ccc(-c4ccccc4)cc3)c2c1C(=O)NC1CC2(C1)CC(C(=O)O)C2 (stereo not shown) [Example 80, 6-(4-([1,1′-biphenyl]-4-ylmethyl)-2-methyl-4H-thieno[3,2-b]pyrrole-3-carboxamido)spiro[3.3]heptane-2-carboxylic acid]
3 | 500 to 5000 | < 500 | O=C(NC1CC2(C1)CC(C(=O)O)C2)c1csc2ccn(Cc3cnc(-c4ccccc4)nc3)c12 (stereo not shown) [Example 94, 6-(4-((2-phenylpyrimidin-5-yl)methyl)-4H-thieno[3,2-b]pyrrole-3-carboxamido)spiro[3.3]heptane-2-carboxylic acid]
4 | 500 to 5000 | < 500 | CCOc1cc(F)cc(-c2ccc(Cc3c(C)sc(C)c3C(=O)NC3CC4(C3)CC(C(=O)O)C4)cc2)c1 (stereo not shown) [Example 45, 6-(4-((3′-ethoxy-5′-fluoro-[1,1′-biphenyl]-4-yl)methyl)-2,5-dimethylthiophene-3-carboxamido)spiro[3.3]heptane-2-carboxylic acid]
5 | 500 to 5000 | > 10000 | O=C(N[C@H]1C[C@H](C(=O)O)C1)c1csc2ccn(Cc3ccc(-c4ccccc4)cc3)c12 [Example 83, (1R,3R)-3-(4-([1,1′-biphenyl]-4-ylmethyl)-4H-thieno[3,2-b]pyrrole-3-carboxamido)cyclobutane-1-carboxylic acid]
6 | 5000 to 10000 | 500 to 5000 | O=C(NC1CC2(C1)CC(C(=O)O)C2)c1csc2ccn(Cc3ccc(-c4ncccn4)cc3)c12 (stereo not shown) [Example 93, 6-(4-(4-(pyrimidin-2-yl)benzyl)-4H-thieno[3,2-b]pyrrole-3-carboxamido)spiro[3.3]heptane-2-carboxylic acid]
7 | 500 to 5000 | < 500 | O=C(NC1CC2(C1)CC(C(=O)O)C2)c1csc2ccn(Cc3ccc(-c4cncc(F)c4)cc3)c12 (stereo not shown) [Example 100, 6-(4-(4-(5-fluoropyridin-3-yl)benzyl)-4H-thieno[3,2-b]pyrrole-3-carboxamido)spiro[3.3]heptane-2-carboxylic acid]
8 | 5000 to 10000 | < 500 | O=C(NC1CC2(C1)CC(C(=O)O)C2)c1csc2ccn(Cc3ccc(-c4ccncc4)cc3)c12 (stereo not shown) [Example 106, 6-(4-(4-(pyridin-4-yl)benzyl)-4H-thieno[3,2-b]pyrrole-3-carboxamido)spiro[3.3]heptane-2-carboxylic acid]
9 | > 10000 | > 10000 | Cc1sc(C)c(C(=O)NC2CC3(C2)CC(C(=O)O)C3)c1Cc1ccc(-c2ccnc(O)c2)cc1 (stereo not shown) [Example 72, 6-(4-(4-(2-hydroxypyridin-4-yl)benzyl)-2,5-dimethylthiophene-3-carboxamido)spiro[3.3]heptane-2-carboxylic acid]
10 | 500 to 5000 | < 500 | Cc1sc(C)c(C(=O)NC2CC3(C2)CC(C(=O)O)C3)c1Cc1ccc(-c2cccc(C(F)(F)F)c2)cc1 (stereo not shown) [Example 44, 6-(2,5-dimethyl-4-((3′-(trifluoromethyl)-[1,1′-biphenyl]-4-yl)methyl)thiophene-3-carboxamido)spiro[3.3]heptane-2-carboxylic acid]
11 | < 500 | < 500 | COc1cc(F)cc(-c2ccc(Cc3c(C)sc(C)c3C(=O)N[C@H]3CC4(C3)C[C@H](C(=O)O)C4)cc2)c1 (single isomer, unassigned) [Example 34b]
12 | > 10000 | 5000 to 10000 | Cc1sc(C)c(C(=O)NC2CC3(C2)CC(C(=O)O)C3)c1Cc1ccc(Oc2ccccc2)cc1 (stereo not shown) [Example 5, 6-(2,5-dimethyl-4-(4-phenoxybenzyl)thiophene-3-carboxamido)spiro[3.3]heptane-2-carboxylic acid]
13 | 500 to 5000 | < 500 | COc1cc(OC)cc(-c2ccc(Cc3c(C)sc(C)c3C(=O)NC3CC4(C3)CC(C(=O)O)C4)cc2)c1 (stereo not shown) [Example 53, 6-(4-((3′,5′-dimethoxy-[1,1′-biphenyl]-4-yl)methyl)-2,5-dimethylthiophene-3-carboxamido)spiro[3.3]heptane-2-carboxylic acid]
14 | > 10000 | 5000 to 10000 | Cc1sc(C)c(C(=O)NC2CC3(C2)CC(C(=O)O)C3)c1Cc1ccc(-c2ccccc2O)cc1 (stereo not shown) [Example 25, 6-(4-((2′-hydroxy-[1,1′-biphenyl]-4-yl)methyl)-2,5-dimethylthiophene-3-carboxamido)spiro[3.3] heptane-2-carboxylic acid]
15 | > 10000 | > 10000 | COC(c1ccc(-c2ccccc2)cc1)c1c(C)sc(C)c1C(=O)NC1CC2(C1)CC(C(=O)O)C2 (stereo not shown) [Example 12, 6-(4-([1,1′-biphenyl]-4-yl(methoxy)methyl)-2,5-dimethylthiophene-3-carboxamido)spiro[3.3]heptane-2-carboxylic acid]
16 | 500 to 5000 | 500 to 5000 | O=C(NC1CC2(C1)CC(C(=O)O)C2)c1csc(C2CC2)c1Cc1ccc(-c2ccccc2)cc1 (stereo not shown) [Example 22]
17 | 500 to 5000 | < 500 | COc1cc(F)cc(-c2ccc(Cc3c(C)sc(C)c3C(=O)NC3CC4(C3)CC(C(=O)O)C4)cc2)c1 (stereo not shown) [Example 34, 6-(4-((3′-fluoro-5′-methoxy-[1,1′-biphenyl]-4-yl)methyl)-2,5-dimethylthiophene-3-carboxamido)spiro[3.3]heptane-2-carboxylic acid]
18 | > 10000 | 5000 to 10000 | Cc1sc(C)c(C(=O)NC2CC3(C2)CC(C(=O)O)C3)c1Cc1ccc(-c2ccc(S(C)(=O)=O)cc2)cc1 (stereo not shown) [Example 35, 6-(2,5-dimethyl-4-((4′-(methylsulfonyl)-[1,1′-biphenyl]-4-yl)methyl)thiophene-3-carboxamido)spiro[3.3]heptane-2-carboxylic acid]
19 | < 500 | < 500 | O=C(NC1CC2(C1)CC(C(=O)O)C2)c1csc2ccn(Cc3ccc(-c4ccccc4)cc3)c12 (stereo not shown) [Example 79, 6-(4-([1,1′-biphenyl]-4-ylmethyl)-4H-thieno[3,2-b]pyrrole-3-carboxamido)spiro[3.3]heptane-2-carboxylic acid]
20 | > 10000 | > 10000 | Cc1sc(C)c(C(=O)NC2CC3(C2)CC(C(=O)O)C3)c1Oc1ccc(-c2ccccc2)cc1 (stereo not shown) [Example 74, 6-(4-([1,1′-biphenyl]-4-yloxy)-2,5-dimethylthiophene-3-carboxamido)spiro[3.3]heptane-2-carboxylic acid]
21 | 500 to 5000 | < 500 | Cc1sc(C)c(C(=O)NC2CC3(C2)CC(C(=O)O)C3)c1Cc1ccc(-c2cc(F)cc(C(N)=O)c2)cc1 (stereo not shown) [Example 57, 6-(4-((3′-carbamoyl-5′-fluoro-[1,1′-biphenyl]-4-yl)methyl)-2,5-dimethylthiophene-3-carboxamido)spiro[3.3]heptane-2-carboxylic acid]
22 | – | < 500 | Cc1sc2ccn(Cc3ccc(-c4ccccc4)cc3)c2c1C(=O)N[C@H]1CC2(C1)C[C@H](C(=O)O)C2 (single isomer, unassigned) [Example 80b]
